The test system of experiment [1] is LPS-induced septic shock in mice. Briefly: comparative trial MTR and AQGV from two sources, LPS sickness scores. The class given is in vivo. Details: key to Sickness Score, individual mouse: 0: No abnormalities.; 1: Percolated fur, but no detectable behavior differences compared to normal mice.; 2: Percolated fur, huddle reflex, responds to stimuli (such as tap on cage), just as active during handling as healthy mouse.; 3: Slower response to tap on cage, passive or docile when handled, but still curious when alone in a new setting.; 4: Lack of curiosity, little or no response to stimuli, quite immobile.; 5: Labored breathing, inability or slow to self-right after being rolled onto back (moribund, sacrificed).; Dead. The note with it: LPS 10-11 mg/kg; for Survival %: group of six. An excerpt: Mice were scored for sickness severity using the following measurement scheme: • 0 No abnormalities. • 1 Percolated fur, but no detectable behavior differences compared to normal mice. • 2 Percolated fur, huddle reflex, responds to stimuli (such as tap on cage), just as active during handling as healthy mouse. • 3 Slower response to tap on cage, passive or docile when handled, but still curious when alone in a new setting. • 4 Lack of curiosity, little or no response to stimuli, quite immobile. • 5 Labored breathing, inability or slow to self-right after being rolled onto back (moribund, sacrificed). • D Dead.
A comparative trial was set up to compare peptide MTR and AQGV (SEQ ID NO:120), each obtained from two commercial sources. The comparative trial comprised six groups of six animals; two groups (1A and 1B) receiving placebo (PBS), one group ([…]), one group (3) receiving peptide MTR (source Ansynth), one group (4) receiving peptide AQGV (SEQ ID NO:120) (source Pepscan) and one group (5) receiving peptide AQGV (SEQ ID NO:120) (source Ansynth). Peptide/placebo in these groups was administered two hours after LPS. LPS (source) was used at 10 to 11 mg/kg. Sickness scores were done at 0, 2, 22, 26, 42, and 48 hours after LPS injection.
Comparative trial MTR and AQGV (SEO ID NO:120), each derived from two sources, all at 5 mg/kg.

Experiment [2] concerns mice after Whole Body Irradiation. Briefly: Dose Reduction Factor (DRF) test, escalating WBI doses. It counts as in vivo. The note with it: for Percent alive at day 30 / Percent dead at day 30 / The absolute number of animals alive at 30 days post WBI: 10 mg/kg s.c. single dose at day 3. As for the experimental part:
Escalating doses of Whole Body Irradiation (WBI), with one single exposure given to any particular cohort, and the exposure dose going progressively higher, for each subsequent cohort. A single dose of peptide EA-230 (AQGV (SEQ ID NO:120)) was administered subcutaneously, but with treatment delayed until three days (72 hours) after the WBI. The test is called the Dose Reduction Factor (“DRF”), which is defined as ratio between the LD50 of the treated group to the LD50 of the control group. The LD50 refers to that dose which is lethal to 50% of the animals tested. An acceptable DRF value is 1.20.
In this example we report on escalating dose studies of Whole Body Irradiation (WBI) with one single exposure given to any particular cohort, and the exposure dose going progressively higher for each subsequent cohort. A single dose of peptide AQGV (SEO ID NO:120) (10 mg/kg) was administered subcutaneously, but with treatment delayed until three days (72 hours) after the WBI. The test is called the Dose Reduction Factor (“DRF”), which is defined as ratio between the LD50 of the treated group to the LD50 of the control group. The LD50 refers to that dose which is lethal to 50% of the animals tested.
An acceptable DRF ratio is a factor of at least 1.10; but preferred is at least 1.20 or even at least 1.25.

The subject of experiment [3] is BALB/c mice exposed whole body to 10 Gy 137Cs-γ-irradiation. The experiment is described as follows: Whole body γ-irradiation (10 Gy), peptide 1.5 hours after irradiation. Particulars: 10 mg/kg i.p. 1.5 hours after 10 Gy; for Watery eyes / Weight loss: affected/total; for Mortality: dead/total. The class given is in vivo. As for the experimental part:
(§1) In the first experiment, 12-week-old female BALB/c mice were treated intraperitoneally with a single injection of either PBS (n=9) or with a peptide (LQGV (SEQ ID NO:117), VLPALP (SEQ ID NO:140), LPGCPRGVNPVVS (SEQ ID NO:114), MTRVLQGVLPALPQVVC (SEQ ID NO:113); n=8, 10 mg/kg). One and a half hours after the treatment, mice were exposed whole body to a single dose of 10 Gy ^137Cs-γ-irradiation. In the second experiment, 12-week-old female BALB/c mice were first exposed whole body to a single dose of 10 Gy ^137Cs-γ-irradiation and then 1.5 hours after the irradiation treated intraperitoneally with a single injection of either PBS (n=9) or with a peptide (n=8 or 9, 10 mg/kg).

Experiment [4] has the same test system. Briefly: Whole body γ-irradiation (10 Gy), peptide 1.5 hours before irradiation. It counts as in vivo. Particulars: 10 mg/kg i.p. 1.5 hours before 10 Gy; for Watery eyes / Weight loss: affected/total; for Mortality: dead/total. As for the experimental part: as §1
Experiment [5] concerns LPS-induced septic shock in mice. The note with it: single treatment after high dose LPS injection; cited from earlier work.
Setting [6] is: 0 hours (LPS treatment), peptide from Ansynth (#Ansynth 12, #Ansynth 46) 5 mg/kg.
[7] abbreviates: 0 hours (LPS treatment), peptide from Diosynth BV (#970, #971) 5 mg/kg.
The mark [8] stands for this setting: 2 hours (compound treatment), peptide from Ansynth (#Ansynth 12, #Ansynth 46) 5 mg/kg.
The mark [9] stands for this setting: 2 hours (compound treatment), peptide from Diosynth BV (#970, #971) 5 mg/kg.
Setting [10] is: 22 hours, peptide from Ansynth (#Ansynth 12, #Ansynth 46) 5 mg/kg.
[11] abbreviates: 22 hours, peptide from Diosynth BV (#970, #971) 5 mg/kg.
The mark [12] stands for this setting: 26 hours, peptide from Ansynth (#Ansynth 12, #Ansynth 46) 5 mg/kg.
[13] abbreviates: 26 hours, peptide from Diosynth BV (#970, #971) 5 mg/kg.
Setting [14] is: 42 hours, peptide from Ansynth (#Ansynth 12, #Ansynth 46) 5 mg/kg.
The mark [15] stands for this setting: 42 hours, peptide from Diosynth BV (#970, #971) 5 mg/kg.
Where [16] appears, read: 48 hours, peptide from Ansynth (#Ansynth 12, #Ansynth 46) 5 mg/kg.
The mark [17] stands for this setting: 48 hours, peptide from Diosynth BV (#970, #971) 5 mg/kg.
Where [18] appears, read: peptide from Ansynth (#Ansynth 12, #Ansynth 46) 5 mg/kg.
[19] abbreviates: peptide from Diosynth BV (#970, #971) 5 mg/kg.

Several values for one entry are separate records, joined by “and”; a condition that tells them apart may be missing. Equal entries are not always repeated.

Regarding AQGV, the “Sickness Score, individual mouse” value in experiment [1] (setting [6]) is 0; in experiment [1] (setting [7]), 0; in experiment [1] (setting [8]), 2; in experiment [1] (setting [9]), 2; in experiment [1] (setting [10]), 3 (2×) and 2 (3×) and 4; in experiment [1] (setting [11]), 2 (4×) and 3 and 4. The “Sickness Score, individual mouse” value in experiment [1] (setting [12]) was 3 (2×) and 2 (3×) and 4; in experiment [1] (setting [13]), 2 (3×) and 3 (2×) and 5; in experiment [1] (setting [14]) it was 2 and 3 and 1 (3×) and 5; in experiment [1] (setting [15]) it was 2 (5×) and dead; in experiment [1] (setting [16]) it was 1 (5×) and dead; in experiment [1] (setting [17]) it was 2 (3×) and 1 (2×). Moreover, the Survival % in experiment [1] (setting [18]) and in experiment [1] (setting [19]) was 83% in each case. The “Dose Reduction Factor (factor by which the radiation dose has to be increased to kill 50% of the animals)” value in experiment [2] (10 mg/kg s.c. single dose 72 hours after WBI, LD50 treated / LD50 control) turned out to be 1.25. In addition, in experiment [2] (10 mg/kg s.c. single dose 72 hours after WBI, day 30), the “radiation dose that kills 50% of the treated animals (LD50)” value is ~10.4 Gy. Further, the “Percent alive at day 30” value in experiment [2] (WBI 8.6 Gy) came to 100%; in experiment [2] (WBI 9.2 Gy), 100%; in experiment [2] (WBI 9.8 Gy), 100%; in experiment [2] (WBI 10.4 Gy), 40%; in experiment [2] (WBI 11.0 Gy) it was 0%. Moreover, the “Percent dead at day 30” value in experiment [2] (WBI 8.6 Gy) is given as 0%; in experiment [2] (WBI 9.2 Gy) it was 0%; in experiment [2] (WBI 9.8 Gy) it was 0%; in experiment [2] (WBI 10.4 Gy), 60%; in experiment [2] (WBI 11.0 Gy), 100%. Moreover, the “The absolute number of animals alive at 30 days post WBI” value in experiment [2] (WBI 8.6 Gy) worked out at 20; in experiment [2] (WBI 9.2 Gy), 10; in experiment [2] (WBI 9.8 Gy) it was 10; in experiment [2] (WBI 10.4 Gy) it was 4; in experiment [2] (WBI 11.0 Gy), 0.

For LQGV, the Watery eyes in experiment [3] (day 0 after irradiation) is reported as 0/9; in experiment [3] (day 4 after irradiation) it was 3/9; in experiment [4] (day 0 after irradiation), 0/8; in experiment [4] (day 4 after irradiation), 0/8. Moreover, the Weight loss in experiment [3] (day 0 after irradiation) was 0/9; in experiment [3] (day 4 after irradiation) it was 9/9; in experiment [4] (day 0 after irradiation), 0/8; in experiment [4] (day 4 after irradiation), 8/8. Further, the Mortality is on record as 0/9 in experiment [3] (day 0 after irradiation); 0/9 in experiment [3] (day 3 after irradiation); 0/9 in experiment [3] (day 4 after irradiation); 1/9 in experiment [3] (day 5 after irradiation); 6/9 in experiment [3] (day 6 after irradiation); 9/9 in experiment [3] (day 7 after irradiation). Moreover, the Mortality is recorded as 0/8 in experiment [4] (day 0 after irradiation); 0/8 in experiment [4] (day 3 after irradiation); 0/8 in experiment [4] (day 4 after irradiation); 0/8 in experiment [4] (day 5 after irradiation); 7/8 in experiment [4] (day 6 after irradiation); 8/8 in experiment [4] (day 7 after irradiation).

For the substance MTR, the “Sickness Score, individual mouse” value was 0 in experiment [1] (setting [6]); 0 in experiment [1] (setting [7]); 2 in experiment [1] (setting [8]); 2 in experiment [1] (setting [9]); 2 (4×) and 4 and 3 in experiment [1] (setting [10]); “dead and 3 and 2 (3×) and 4” in experiment [1] (setting [11]). Besides, the “Sickness Score, individual mouse” value in experiment [1] (setting [12]) is 1 and 2 (2×) and 5 and 4 and 3; in experiment [1] (setting [13]) it was 3 and 2 (3×) and 5; in experiment [1] (setting [14]) it was 1 and 2 (2×) and dead and 4 and 5; in experiment [1] (setting [15]), 5 and 2 (2×) and 4 and dead; in experiment [1] (setting [16]) it was 1 (2×) and dead (2×) and 2; in experiment [1] (setting [17]) it was “dead (2×) and 2 (2×)”. The Survival % was 50% in experiment [1] (setting [18]) and 33% in experiment [1] (setting [19]).

As to VLPALP (hexamer peptide), the Watery eyes in experiment [3] (day 0 after irradiation) was 0/9; in experiment [3] (day 4 after irradiation), 0/9; in experiment [4] (day 0 after irradiation), 0/8; in experiment [4] (day 4 after irradiation), 0/8. Further, the Weight loss in experiment [3] (day 0 after irradiation) is reported as 0/9; in experiment [3] (day 4 after irradiation) it was 9/9; in experiment [4] (day 0 after irradiation), 0/8; in experiment [4] (day 4 after irradiation) it was 8/8. Further, the Mortality was 0/9 in experiment [3] (day 0 after irradiation); 0/9 in experiment [3] (day 3 after irradiation); 0/9 in experiment [3] (day 4 after irradiation); 0/9 in experiment [3] (day 5 after irradiation); 3/9 in experiment [3] (day 6 after irradiation); 9/9 in experiment [3] (day 7 after irradiation). Moreover, the Mortality is recorded as 0/8 in experiment [4] (day 0 after irradiation); 0/8 in experiment [4] (day 3 after irradiation); 0/8 in experiment [4] (day 4 after irradiation); 0/8 in experiment [4] (day 5 after irradiation); 7/8 in experiment [4] (day 6 after irradiation); 8/8 in experiment [4] (day 7 after irradiation). Moreover, the “septic shock in mice (in words)” value in experiment [5] is on record as “inhibited septic shock in mice”.

Values taken from patent publication US7795226B2, “Control of radiation injury” (Biotempt B.V., priority 2006, dated 2010).
